Reference: US20060154942A1, “Quinazolinone derivatives useful as anti-hyperalgesic agents” (priority 2002, published 2006)

- melting point: 326 to 330 °C
Structure (SMILES): CC(C)c1cc2nc(N)[nH]c(=O)c2cc1-c1ccc(Cl)cc1 [Example 59, 2-Amino-6-(4-chlorophenyl)-7-isopropyl-3H-quinazolin-4-one]
